In US9943599B2, “Therapeutic applications of calcium electroporation to effectively induce tumor necrosis” (Herlev Hospital, priority 2011, dated 2018):

Legend:
[1] = tested on: HT29 (human colon cancer) tumors; assay: Fraction of necrosis after calcium electroporation, HT29 tumors; type: in vivo, NMRI-Foxn1^nu mice
Description: LPB, a murine sarcoma cell line, B16, a murine malignant melanoma cell line, MDA-MB231, human a breast cancer cell line, HT29, a human colon cancer cell line, and SW780, a human bladder cancer cell line were used for the in vivo experiment. The cells were tested by rapid MAP27 panel (Taconic, Hudson N.Y.) before use without signs of infection. 2×10^5 cells (B16), 8×10^5 cells (LPB), 2.5×10^6 cells (MDA-MB231), and 5×10^6 cells (HT29 and SW780) in 100 μl PBS were injected subcutaneously in the flank of NMRI-Foxn1^nu mice (Harlan, Indianapolis, Ind.) that were 9-11 weeks old. Mice were randomised at a tumor volume above 85 mm^3 and tumors were treated with injection of isotonic calcium-chloride solution (168 mM CaCI2) and electroporation (8 pulses of 1.0 kv/cm for 100 μs and a frequency of 1 Hz) using a 6 mm plate electrode and a square wave electroporator (CLINIPORATOR®, IGEA, Modena, Italy). Tumor volume was calculated as ab^2n/6, where a is the largest diameter and b is the largest diameter perpendicular to a. The injected volume was half of the tumor volume. […] The fraction of necrosis within the tumor was estimated from HE-sections by stereological point counting using a light microscope, evaluated by a pathologist, blinded with respect to treatment status.
The difference in fraction of necrosis at different time after treatment was assessed using student's t-test.

[2] = tested on: H69 (human small cell lung cancer) tumors; assay: Hypothetical volume test of injected solution; type: in vivo, NMRI-Foxn1^nu mice; conditions: with electroporation
Description: H69, a human small cell lung cancer cell line stably transfected with EGFP regulated by the cytomegalo-virus (CMV) promoter, is used for the in vivo experiments. The cells are tested by rapid MAP27 panel (Taconic, Hudson N.Y.) before use without signs of infection. Cells are maintained in vitro as described in Example 1. 1.5×10^6 cells/100 μl PBS are injected subcutaneously in both flanks of NMRI-Foxn1^nu mice (Harlan, Indianapolis, Ind.) that are 9-11 weeks old. Tumor pieces are transplanted from donor mice to the right flank of nude mice. HYPNORM™-DORMICUM™ (fentanyl/fluanisone/midazolam; VetaPharma, Leeds, U K and Roche, Basel, Switzerland) is used for anesthesia complemented with RIMADYL® (Carprofen) (Pfizer ApS, Ballerup, Denmark) […] as lidocaine (Region Hovedstadens Apotek, Herlev, Denmark) in the incision. […] Tumor volume is calculated as ab^2n/6, where “a” is the largest diameter and “b” is the largest diameter perpendicular to “a”. […] Background fluorescence is measured on the opposite flank and then the background fluorescence level is subtracted from fluorescence intensity of tumors. Finally, all fluorescence intensity below 100 normalised counts (NC) is filtered away using ART, Saint-Laurent, Quebec OPTIX® Optiview version 2.02 software (ART, Saint-Laurent, Quebec).
The differences in tumor volume and fluorescence intensity between tumors injected with the different solution volumes in the 4 treatment groups are evaluated as repeated measurements, validated and analysed with an exponential decrease model with Bonferroni correction for multiple comparisons using SAS® software version 9.1 (SAS, Cary, N.C.). ‘Group’, ‘days’ and ‘mouse’ are considered as factors and baseline levels of tumor volume or fluorescence intensity are used as covariant.

**Q.** With `[Ca+2].[Cl-].[Cl-]` [calcium chloride] as the molecule, how does the “fraction of necrosis in tumors, course” value ([1]; 168 mM CaCl2, half tumor volume, electroporation, first days after treatment) read?
**A.** progressive necrosis

**Q.** And the tumor re-growth ([1]; 6 days after the treatment)?
**A.** re-growth

**Q.** And the tumors eliminated ([2]; volume ratio 0.2, 004, 0.6 or 0.8)?
**A.** eliminates most of the tumors

**Q.** What about the “ulceration of treated tumors” value [2] of the same molecule?
**A.** occurs in most

**Q.** What about the “fluorescence intensity of tumors” value ([2]; all 4 injection volumes) of the same molecule?
**A.** decrease drastically
